This note sets out measurements from US20250171423A1, “PHARMACEUTICAL COMPOUNDS FOR THE TREATMENT OF COMPLEMENT MEDIATED DISORDERS” (Achillion Pharmaceuticals, Inc., priority 2020, published 2025).

In the test the target is T1, Human complement C1s enzyme (Homo sapiens, UniProt P09871).
T1 construct: purified from human serum, Complement Technology, Inc; purchased Complement Technology, Inc; host or cells: human serum
T1 sequence (P09871 438-688 limits assumed): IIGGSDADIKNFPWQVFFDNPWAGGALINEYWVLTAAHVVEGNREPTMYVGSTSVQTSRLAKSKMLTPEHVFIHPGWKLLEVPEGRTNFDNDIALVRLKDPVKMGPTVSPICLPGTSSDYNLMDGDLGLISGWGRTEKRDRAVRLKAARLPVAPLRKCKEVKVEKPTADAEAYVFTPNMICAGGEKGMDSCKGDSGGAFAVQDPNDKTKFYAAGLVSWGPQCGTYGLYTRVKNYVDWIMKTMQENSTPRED
T1 sequence (P09871 16-437 partner limits assumed): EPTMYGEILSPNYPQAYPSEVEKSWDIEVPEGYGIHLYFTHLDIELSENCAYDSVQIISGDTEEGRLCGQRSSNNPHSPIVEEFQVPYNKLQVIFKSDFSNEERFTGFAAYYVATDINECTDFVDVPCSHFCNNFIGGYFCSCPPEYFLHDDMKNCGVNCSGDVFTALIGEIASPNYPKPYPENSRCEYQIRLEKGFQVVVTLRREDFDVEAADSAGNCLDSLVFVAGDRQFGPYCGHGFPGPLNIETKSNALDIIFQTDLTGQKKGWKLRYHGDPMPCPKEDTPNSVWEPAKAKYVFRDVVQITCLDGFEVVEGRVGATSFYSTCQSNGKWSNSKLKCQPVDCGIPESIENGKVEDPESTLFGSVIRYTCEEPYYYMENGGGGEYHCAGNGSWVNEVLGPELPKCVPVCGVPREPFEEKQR
Kind of test: Human C1s Enzyme Assay. In kind it is biochemical. The settings on record: human C1s 1.16 nM, 5 min preincubation, substrate Z-L-Lys-SBzl 100 μM, A405; read-out: C1s Protease Activity. In a few lines:
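C1s purified from human serum (1.16 nM final) was preincubated with compound for 5 min at room temperature in 50 mM Tris, 1 M NaCl, pH 7.5. Z-L-Lys-SBzl and DTNB were then added at 100 μM each, and A405 was followed for 30 min. IC50 came from nonlinear regression of reaction rates.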

With `C[C@@H](NC(=O)[C@@H]1C[C@H](C2CCCCC2)CN1C(=O)CNC(=O)CCCOc1ccccc1)c1cc(C(=N)N)cs1` [Compound 243, (2S,4R)-N-((R)-1-(4-carbamimidoylthiophen-2-yl)ethyl)-4-cyclohexyl-1-((4-phenoxybutanoyl)glycyl)pyrrolidine-2-carboxamide], the IC50 was less than 100 nM.
Under `C[C@@H](NC(=O)[C@@H]1C[C@](F)(COCCCCCC(=O)O)CN1C(=O)CNC(=O)CCCOc1ccccc1)c1cc(C(=N)N)cs1` [Compound 234, 6-(((3R,5S)-5-(((R)-1-(4-carbamimidoylthiophen-2-yl)ethyl)carbamoyl)-3-fluoro-1-((4-phenoxybutanoyl)glycyl)pyrrolidin-3-yl)methoxy)hexanoic acid] stands less than 100 nM.
With `C[C@@]12C[C@@H]1N(C(=O)CNC(=O)CCCOc1cccc(C(=O)O)c1)[C@H](C(=O)NCc1cc(C(=N)N)cs1)C2` [Compound 165, 3-(4-((2-((1S,3S,5S)-3-(((4-carbamimidoylthiophen-2-yl)methyl)carbamoyl)-5-methyl-2-azabicyclo[3.1.0]hexan-2-yl)-2-oxoethyl)amino)-4-oxobutoxy)benzoic acid], the IC50 was less than 100 nM.
The figure for `N=C(N)c1csc(CNC(=O)CNC(=O)CNC(=O)c2ccc(Oc3ccccc3)cc2)c1` [Compound 77, N-(2-((2-(((4-carbamimidoylthiophen-2-yl)methyl)amino)-2-oxoethyl)amino)-2-oxoethyl)-4-phenoxybenzamide] is 100 to 1000 nM; for `CN(C)C[C@@]1(F)C[C@@H](C(=O)NCc2cc(C(=N)N)cs2)N(C(=O)CNC(=O)CCCOc2ccccc2)C1` [Compound 129, (2S,4S)-N-[(4-carbamimidoylthiophen-2-yl)methyl]-4-[(dimethylamino)methyl]-4-fluoro-1-[2-(4-phenoxybutanamido)acetyl]pyrrolidine-2-carboxamide] it is less than 100 nM.
Under `N=C(N)c1ccc(CNC(=O)[C@@H]2CC3(CN2C(=O)CNC(=O)CCCOc2ccccc2)OCCO3)s1` [Compound 83, (S)-N-((5-carbamimidoylthiophen-2-yl)methyl)-7-((4-phenoxybutanoyl)glycyl)-1,4-dioxa-7-azaspiro[4.4]nonane-8-carboxamide] stands less than 100 nM; under `C[C@@]12C[C@@H]1N(C(=O)CNC(=O)CCCOc1ccccc1)[C@H](C(=O)NCc1cc(C(=N)N)c(C(F)(F)F)s1)C2` [Compound 251, (1S,3S,5S)-N-((4-carbamimidoyl-5-(trifluoromethyl)thiophen-2-yl)methyl)-5-methyl-2-((4-phenoxybutanoyl)glycyl)-2-azabicyclo[3.1.0]hexane-3-carboxamide], greater than 1000 nM.
Under `C[C@@H](NC(=O)[C@@H]1C[C@]2(COCCNC(=O)COCCOCCNC(=O)COCCOCCNC(=O)CC[C@H](NC(=O)CCCCCCCCCCCCCCCCC(=O)O)C(=O)O)C[C@@H]2N1C(=O)CNC(=O)CCCOc1ccccc1)c1cc(C(=N)N)cs1` [Compound 152, (S)-1-((1S,3S,5R)-3-(((R)-1-(4-carbamimidoylthiophen-2-yl)ethyl)carbamoyl)-2-((4-phenoxybutanoyl)glycyl)-2-azabicyclo[3.1.0]hexan-5-yl)-27-carboxy-6,15,24,29-tetraoxo-2,8,11,17,20-pentaoxa-5,14,23,28-tetraazahexatetracontan-46-oic acid] stands less than 100 nM; under `C[C@@]12C[C@@H]1N(C(=O)CNC(=O)c1ccc(Oc3ccccc3)cc1)[C@H](C(=O)NC1(c3cc(C(=N)N)cs3)CC1)C2` [Compound 41, (1S,3S,5S)-N-(1-(4-carbamimidoylthiophen-2-yl)cyclopropyl)-5-methyl-2-((4-phenoxybenzoyl)glycyl)-2-azabicyclo[3.1.0]hexane-3-carboxamide], less than 100 nM.
Turning to `CC(C)O[C@@H]1C[C@@H](C(=O)NCc2cc(C(=N)N)cs2)N(C(=O)CNC(=O)c2ccc(Oc3ccccc3)cc2)C1` [Compound 138, (2S,4R)-N-((4-carbamimidoylthiophen-2-yl)methyl)-4-isopropoxy-1-((4-phenoxybenzoyl)glycyl)pyrrolidine-2-carboxamide], the IC50 is less than 100 nM.
Turning to `C[C@@]12C[C@@H]1N(C(=O)CNC(=O)c1ccc(Oc3ccccc3)cc1)[C@H](C(=O)NCc1cnc(N)s1)C2` [Compound 102, (1S,3S,5S)-N-[(2-amino-1,3-thiazol-5-yl)methyl]-5-methyl-2-{2-[(4-phenoxyphenyl)-formamido]acetyl}-2-azabicyclo[3.1.0]hexane-3-carboxamide], the IC50 is 100 to 1000 nM.
For the compound `N=C(N)c1csc([C@@H](NC(=O)[C@@H]2CC3(CN2C(=O)CNC(=O)CCCOc2ccccc2)OCCO3)C2CCCC2)c1` [Compound 179, (S)-N-((S)-(4-carbamimidoylthiophen-2-yl)(cyclopentyl)methyl)-7-((4-phenoxybutanoyl)glycyl)-1,4-dioxa-7-azaspiro[4.4]nonane-8-carboxamide], the IC50 was greater than 1000 nM.
Under `C[C@@]12C[C@@H]1N(C(=O)CNC(=O)c1ccc(Oc3ccccc3)cc1)[C@H](C(=O)NCc1cc3c(s1)CCN=C3N)C2` [Compound 182, (1S,3S,5S)-N-((4-amino-6,7-dihydrothieno[3,2-c]pyridin-2-yl)methyl)-5-methyl-2-((4-phenoxybenzoyl)glycyl)-2-azabicyclo[3.1.0]hexane-3-carboxamide] stands greater than 1000 nM; under `COc1ccc(CNC(=O)[C@@H]2C[C@]3(C)C[C@@H]3N2C(=O)CNC(=O)c2ccc(Oc3ccccc3)cc2)cc1` [Compound 43, (1S,3S,5S)-N-(4-methoxybenzyl)-5-methyl-2-((4-phenoxy-benzoyl)-glycyl)-2-azabicyclo[3.1.0]hexane-3-carboxamide], greater than 1000 nM.
Under `C[C@@]12C[C@@H]1N(C(=O)CNC(=O)c1ccc(Oc3ccc(P(C)(=O)O)cc3)cc1)[C@H](C(=O)NCc1cc(C(=N)N)cs1)C2` [Compound 53, (4-(4-((2-((1S,3S,5S)-3-(((4-carbamimidoylthiophen-2-yl)methyl)carbamoyl)-5-methyl-2-azabicyclo[3.1.0]hexan-2-yl)-2-oxoethyl)carbamoyl)phenoxy)phenyl)-(methyl)phosphinic acid] stands 100 to 1000 nM; under `C[C@@]12C[C@@H]1N(C(=O)CN1Cc3cc(Oc4ccccc4)ccc3C1=O)[C@H](C(=O)NCc1cc(C(=N)N)cs1)C2` [Compound 101, (1S,3S,5S)-N-((4-carbamimidoylthiophen-2-yl)methyl)-5-methyl-2-(2-(1-oxo-5-phenoxyisoindolin-2-yl)acetyl)-2-azabicyclo[3.1.0]hexane-3-carboxamide], less than 100 nM; under `CC(C)[C@@H](NC(=O)[C@@H]1CC2(CN1C(=O)CNC(=O)CCCOc1ccccc1)OCCO2)c1cc(C(=N)N)cs1` [Compound 167, (S)-N-((R)-1-(4-carbamimidoylthiophen-2-yl)-2-methylpropyl)-7-((4-phenoxybutanoyl)glycyl)-1,4-dioxa-7-azaspiro[4.4]nonane-8-carboxamide], greater than 1000 nM.
Under `C[C@H](NC(=O)[C@@H]1C[C@]2(C)C[C@@H]2N1C(=O)CNC(=O)c1ccc(Oc2ccccc2)cc1)c1cc(-c2ncc[nH]2)cs1` [Compound 254, (1S,3S,5S)-N-((S)-1-(4-(1H-imidazol-2-yl)thiophen-2-yl)ethyl)-5-methyl-2-((4-phenoxybenzoyl)glycyl)-2-azabicyclo[3.1.0]hexane-3-carboxamide] stands greater than 1000 nM; under `C[C@@]12C[C@@H]1N(C(=O)CNC(=O)CCCCc1ccccc1)[C@H](C(=O)NCc1cc(C(=N)N)cs1)C2` [Compound 81, (1S,3S,5S)-N-((4-carbamimidoylthiophen-2-yl)methyl)-5-methyl-2-((5-phenyl-pentanoyl)glycyl)-2-azabicyclo[3.1.0]hexane-3-carboxamide], less than 100 nM; under `N=C(N)c1csc([C@H](NC(=O)[C@@H]2CC3(CN2C(=O)CNC(=O)CCCOc2ccccc2)OCCO3)C2CC2)c1` [Compound 177, (S)-N-((R)-(4-carbamimidoylthiophen-2-yl)(cyclopropyl)methyl)-7-((4-phenoxybutanoyl)glycyl)-1,4-dioxa-7-azaspiro[4.4]nonane-8-carboxamide], greater than 1000 nM.
Regarding `C[C@@H](NC(=O)[C@@H]1C[C@](F)(CF)CN1C(=O)CNC(=O)c1ccc(Oc2ccccc2)cc1)c1cc(C(=N)N)cs1` [Compound 187, (2S,4R)-N-((R)-1-(4-carbamimidoylthiophen-2-yl)ethyl)-4-fluoro-4-(fluoromethyl)-1-((4-phenoxybenzoyl)glycyl)pyrrolidine-2-carboxamide], the IC50 is less than 100 nM.
The figure for `C[C@@]12C[C@@H]1N(C(=O)CNC(=O)c1ccc(Oc3cccnc3)cn1)[C@H](C(=O)NCc1cc(C(=N)N)cs1)C2` [Compound 162, (1S,3S,5S)-N-((4-carbamimidoylthiophen-2-yl)methyl)-5-methyl-2-((5-(pyridin-3-yloxy)picolinoyl)glycyl)-2-azabicyclo[3.1.0]hexane-3-carboxamide] is less than 100 nM.
